This note sets out measurements from patent US20250090540A1, “PI3K-ALPHA INHIBITORS AND METHODS OF USE THEREOF” (Relay Therapeutics, Inc., priority 2021, published 2025).

pIC50: −log10 of the molar value.

The target of the first assay is H1047R PIK3CA enzyme (Homo sapiens, UniProt P42336, H1047R). The experiment in a line: ADP-Glo Biochemical PIK3CA Kinase Assay.
Chain of H1047R PIK3CA enzyme (P42336 whole entry H1047R): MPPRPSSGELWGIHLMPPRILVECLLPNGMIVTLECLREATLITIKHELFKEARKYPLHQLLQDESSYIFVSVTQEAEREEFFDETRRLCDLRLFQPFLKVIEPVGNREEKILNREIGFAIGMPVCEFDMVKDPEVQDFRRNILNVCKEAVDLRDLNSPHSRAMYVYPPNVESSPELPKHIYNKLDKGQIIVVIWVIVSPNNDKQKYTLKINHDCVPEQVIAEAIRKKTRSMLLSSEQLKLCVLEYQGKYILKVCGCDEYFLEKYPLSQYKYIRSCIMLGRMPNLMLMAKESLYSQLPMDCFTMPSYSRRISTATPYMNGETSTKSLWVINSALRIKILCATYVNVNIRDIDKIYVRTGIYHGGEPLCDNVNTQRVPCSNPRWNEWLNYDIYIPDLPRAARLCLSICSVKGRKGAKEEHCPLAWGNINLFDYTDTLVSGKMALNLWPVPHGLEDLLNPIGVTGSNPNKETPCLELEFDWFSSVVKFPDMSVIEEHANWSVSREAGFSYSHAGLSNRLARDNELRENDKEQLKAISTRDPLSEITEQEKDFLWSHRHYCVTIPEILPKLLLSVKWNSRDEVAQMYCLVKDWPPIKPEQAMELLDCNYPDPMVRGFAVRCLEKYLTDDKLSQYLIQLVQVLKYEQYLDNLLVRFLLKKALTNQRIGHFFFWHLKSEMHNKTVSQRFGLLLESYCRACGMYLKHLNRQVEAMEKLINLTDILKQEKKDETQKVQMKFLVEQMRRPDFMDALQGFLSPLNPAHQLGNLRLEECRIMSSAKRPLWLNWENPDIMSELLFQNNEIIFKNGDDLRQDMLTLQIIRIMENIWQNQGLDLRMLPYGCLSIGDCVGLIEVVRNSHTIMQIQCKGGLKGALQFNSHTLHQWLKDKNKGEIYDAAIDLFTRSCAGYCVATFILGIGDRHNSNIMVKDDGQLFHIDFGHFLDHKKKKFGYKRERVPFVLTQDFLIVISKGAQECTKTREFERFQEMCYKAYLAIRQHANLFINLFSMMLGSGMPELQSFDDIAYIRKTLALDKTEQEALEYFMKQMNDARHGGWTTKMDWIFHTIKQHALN
Chain of H1047R PIK3CA enzyme (P27986 whole entry partner): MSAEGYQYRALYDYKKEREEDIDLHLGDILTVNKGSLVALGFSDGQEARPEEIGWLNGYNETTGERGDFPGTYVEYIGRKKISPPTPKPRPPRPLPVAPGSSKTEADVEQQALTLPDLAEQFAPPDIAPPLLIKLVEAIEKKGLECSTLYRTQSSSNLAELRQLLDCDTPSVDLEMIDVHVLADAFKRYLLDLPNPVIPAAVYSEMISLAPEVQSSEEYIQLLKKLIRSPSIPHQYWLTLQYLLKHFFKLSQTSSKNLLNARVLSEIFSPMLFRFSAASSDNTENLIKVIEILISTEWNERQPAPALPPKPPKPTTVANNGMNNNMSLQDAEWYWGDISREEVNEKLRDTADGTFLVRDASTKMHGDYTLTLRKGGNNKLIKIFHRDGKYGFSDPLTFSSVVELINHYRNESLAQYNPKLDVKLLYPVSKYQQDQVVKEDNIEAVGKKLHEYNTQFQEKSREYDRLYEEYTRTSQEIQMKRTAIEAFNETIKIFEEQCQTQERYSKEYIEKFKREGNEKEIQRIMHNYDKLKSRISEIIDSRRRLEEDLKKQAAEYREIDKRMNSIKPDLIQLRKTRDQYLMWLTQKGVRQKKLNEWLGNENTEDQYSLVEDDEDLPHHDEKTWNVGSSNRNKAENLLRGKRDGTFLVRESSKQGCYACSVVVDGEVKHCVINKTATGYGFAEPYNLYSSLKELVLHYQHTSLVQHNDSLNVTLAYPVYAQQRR
Details: not given
The pIC50 is −log10 of the IC50, conventionally taken in molar units. The low end stands for a large IC50, the high end for a small IC50. For the compound `CNC(=O)c1cnc(Nc2ccccc2C)c(NC(=O)c2cc(C)n(C(F)F)n2)c1` [I-369], the pIC50 was 4.00 to 5.00.

`CNC(=O)c1cnc(Nc2ccccc2C)c(NC(=O)c2c[nH]c3cccc(OC)c23)c1` [I-370]: the pIC50 was 4.00 to 5.00.

`CNC(=O)c1cnc(Nc2ccccc2C)c(NC(=O)c2cccnc2C(F)(F)F)c1` [I-371] had a pIC50 of 4.00 to 5.00.

With `CNC(=O)c1cnc(Nc2ccccc2C)c(NC(=O)c2nccnc2C(F)(F)F)c1` [I-372], the pIC50 is 4.00 to 5.00.

`CNC(=O)c1cnc(Nc2ccccc2C)c(NC(=O)Cc2cc(C)cc(F)c2)c1` [I-373]: the pIC50 is 4.00 to 5.00.

As for `CNC(=O)c1cnc(Nc2ccccc2C)c(NC(=O)c2cn3ccccc3n2)c1` [I-374], the negative logarithm of the IC50 (pIC50) is 4.00 to 5.00.

On to `CCn1nc(C(=O)Nc2cc(C(=O)NC)cnc2Nc2ccccc2C)c2ccccc21` [I-375], for which the pIC50 is 4.00 to 5.00.

`CNC(=O)c1cnc(Nc2ccccc2C)c(NC(=O)c2cccc(C(F)(F)F)n2)c1` [I-376]: the pIC50 was 4.00 to 5.00.

As to `CNC(=O)c1cnc(Nc2ccccc2C)c(NC(=O)c2cn3c(Cl)cccc3n2)c1` [I-377], the pIC50 was 4.00 to 5.00.

The compound `CNC(=O)c1cnc(Nc2ccccc2C)c(NC(=O)c2ccc(F)c(F)c2OC)c1` [I-378] gave a pIC50 of 4.00 to 5.00.

Take `CNC(=O)c1cnc(Nc2ccccc2C)c(NC(=O)c2cccc(C#N)n2)c1` [I-379]: the pIC50 is 4.00 to 5.00.

The compound `CNC(=O)c1cnc(Nc2ccccc2C)c(NC(=O)c2cn3c(C(F)(F)F)cccc3n2)c1` [I-380] gave a pIC50 of 4.00 to 5.00.

Take `CNC(=O)c1cnc(Nc2ccccc2C)c(NC(=O)CC2COc3ccccc3O2)c1` (centres unmarked) [I-381]: the pIC50 is 4.00 to 5.00.

`CNC(=O)c1cnc(Nc2ccccc2C)c(NC(=O)c2ccc(Cl)c(C#N)c2)c1` [I-382]: the pIC50 is 4.00 to 5.00.

Take `CNC(=O)c1cnc(Nc2ccccc2C)c(NC(=O)c2n[nH]c3c(F)cccc23)c1` [I-383]: the pIC50 was 4.00 to 5.00.

As for `CNC(=O)c1cnc(Nc2ccccc2C)c(NC(=O)CCc2cnccc2C(F)(F)F)c1` [I-384], the pIC50 was 4.00 to 5.00.

On to `CNC(=O)c1cnc(Nc2ccccc2C)c(NC(=O)c2cnn(C)c2C(F)(F)F)c1` [I-385], for which the pIC50 was 4.00 to 5.00.

In turn, `CNC(=O)c1cnc(Nc2ccccc2C)c(NC(=O)C2CCNc3ccccc32)c1` (centres unmarked) [I-386] gave a pIC50 of 4.00 to 5.00.

In turn, `CNC(=O)c1cnc(Nc2ccccc2C)c(NC(=O)CC2OCCc3ccccc32)c1` (centres unmarked) [I-387] gave a pIC50 of 4.00 to 5.00.

For `CNC(=O)c1cnc(Nc2ccccc2C)c(NC(=O)c2cncc(C(F)(F)F)c2)c1` [I-388], the negative-log IC50 (pIC50) is 4.00 to 5.00.

In turn, `CNC(=O)c1cnc(Nc2ccccc2C)c(NC(=O)c2cc(F)cc(S(N)(=O)=O)c2)c1` [I-389] showed a pIC50 of 4.00 to 5.00.

For the compound `CNC(=O)c1cnc(Nc2ccccc2C)c(NC(=O)c2ccc(OC(F)(F)F)c(F)c2)c1` [I-391], the pIC50 is 4.00 to 5.00.

`CNC(=O)c1cnc(Nc2ccccc2C)c(NC(=O)c2cc(F)cc3[nH]ccc23)c1` [I-392] showed a pIC50 of 4.00 to 5.00.

Consider `CNC(=O)c1cnc(Nc2ccccc2C)c(NC(=O)c2cc(F)c3[nH]ncc3c2)c1` [I-393], for which the pIC50 is 4.00 to 5.00.

As for `CNC(=O)c1cnc(Nc2ccccc2C)c(NC(=O)c2cc(F)c3cc[nH]c3c2)c1` [I-394], the negative-log IC50 (pIC50) is 4.00 to 5.00.

Still in this assay, the particulars now being: ADP-Glo biochemical PIK3CA kinase assay.
In turn, `CNC(=O)c1cnc(Nc2cccnc2OC)c(NC(=O)c2csc3ccccc23)c1` [I-400] showed a pIC50 of 4.00 to 5.00.

`CNC(=O)c1cnc(Nc2cccc(OC)c2)c(NC(=O)c2csc3ccccc23)c1` [I-401] showed a negative logarithm of the IC50 (pIC50) of 5.00 to 6.00.

Compound `CNC(=O)c1cnc(Nc2ccccc2C)c(NC(=O)c2csc3c2CCC(C)(C)C3)c1` [I-403] had a pIC50 of 4.00 to 5.00.

Compound `CNC(=O)c1cnc(Nc2ccccc2C)c(NC(=O)c2csc3cc(F)cc(F)c23)c1` [I-404] gave a pIC50 of 4.00 to 5.00.

Regarding `CNC(=O)c1cnc(Nc2ccccc2C)c(NC(=O)Cc2csc3ccccc23)c1` [I-410], the pIC50 is 4.00 to 5.00.

Regarding `CNC(=O)c1cnc(Nc2ccccc2C)c(NC(=O)c2cnc3c(Cl)cccn23)c1` [I-414], the pIC50 is 4.00 to 5.00.

Compound `CNC(=O)c1cnc(Nc2ccccc2C)c(NC(=O)c2nc3ccccn3c2F)c1` [I-415] showed a negative logarithm of the IC50 (pIC50) of 4.00 to 5.00.

Regarding `CNC(=O)c1cnc(Nc2ccccc2C)c(NC(=O)c2cnc(O)cc2C(F)(F)F)c1` [I-416], the pIC50 is 4.00 to 5.00.

Take `CNC(=O)c1cnc(Nc2ccccc2C)c(NC(=O)c2cn(C)nc2C(F)F)c1` [I-417]: the negative-log IC50 (pIC50) was 4.00 to 5.00.

As to `CNC(=O)c1cnc(Nc2ccccc2C)c(NC(=O)c2cc(C)c3ccccc3n2)c1` [I-418], the pIC50 was 4.00 to 5.00.

In turn, `CNC(=O)c1cnc(Nc2ccccc2C)c(NC(=O)c2cc(C)cc3cccnc23)c1` [I-419] showed a pIC50 of 5.00 to 6.00.

For `CNC(=O)c1cnc(Nc2ccccc2C)c(NC(=O)c2cnn3cc(F)ccc23)c1` [I-420], the pIC50 was 4.00 to 5.00.

`CNC(=O)c1cnc(Nc2ccccc2C)c(NC(=O)c2cccc3cc(C)[nH]c23)c1` [I-421]: the pIC50 was 5.00 to 6.00.

Compound `CNC(=O)c1cnc(Nc2ccccc2C)c(NC(=O)c2cn3c(F)cccc3n2)c1` [I-422] gave a negative logarithm of the IC50 (pIC50) of 4.00 to 5.00.

As for `CNC(=O)c1cnc(Nc2ccccc2C)c(NC(=O)c2cc(C)cc3cc[nH]c23)c1` [I-423], the pIC50 is 5.00 to 6.00.

As for `CNC(=O)c1cnc(Nc2ccccc2C)c(NC(=O)c2cc3cc(F)ccc3[nH]2)c1` [I-425], the pIC50 is 4.00 to 5.00.

For the compound `CNC(=O)c1cnc(Nc2ccccc2C)c(NC(=O)c2n[nH]c3cccc(F)c23)c1` [I-426], the negative-log IC50 (pIC50) is 5.00 to 6.00.

In turn, `CNC(=O)c1cnc(Nc2ccccc2C)c(NC(=O)c2nc3ccccn3c2C)c1` [I-427] gave a pIC50 of 4.00 to 5.00.

For `CNC(=O)c1cnc(Nc2ccccc2C)c(NC(=O)C(C)n2ccccc2=O)c1` (centres unmarked) [I-428], the pIC50 was 4.00 to 5.00.

Regarding `CNC(=O)c1cnc(Nc2ccccc2C)c(NC(=O)c2cc3cc[nH]c3cc2F)c1` [I-429], the pIC50 was 4.00 to 5.00.

In turn, `CNC(=O)c1cnc(Nc2ccccc2C)c(NC(=O)c2cnn3cccc(OC)c23)c1` [I-430] gave a pIC50 of 4.00 to 5.00.

`CNC(=O)c1cnc(Nc2ccccc2C)c(NC(=O)c2ccc3c(cnn3C)c2)c1` [I-431]: the negative logarithm of the IC50 (pIC50) is 4.00 to 5.00.

On to `CNC(=O)c1cnc(Nc2ccccc2C)c(NC(=O)c2cc(C(F)(F)F)ccn2)c1` [I-432], for which the pIC50 is 4.00 to 5.00.

`Cc1ccccc1CNc1cccc(=O)n1Cc1ccccc1C` [I-433] had a pIC50 of 4.00 to 5.00.

In the case of `CNC(=O)c1cnc(Nc2ccccc2C)c(NC(=O)CCc2ccccc2F)c1` [I-437], the pIC50 was 4.00 to 5.00.

Consider `CNC(=O)c1cnc(Nc2ccccc2C)c(NC(=O)c2ccnc3c(F)cccc23)c1` [I-438], for which the pIC50 is 4.00 to 5.00.

`CNC(=O)c1cnc(Nc2ccccc2C)c(NC(=O)c2nn(C)c(C3CC3)c2F)c1` [I-439] showed a pIC50 of 4.00 to 5.00.

`CNC(=O)c1cnc(Nc2ccccc2C)c(NC(=O)c2cc3c(C)cccc3[nH]2)c1` [I-440] showed a pIC50 of 4.00 to 5.00.

As to `CNC(=O)c1cnc(Nc2ccccc2C)c(NC(=O)C2CCCCC2(F)F)c1` (centres unmarked) [I-441], the pIC50 was 4.00 to 5.00.

`CNC(=O)c1cnc(Nc2ccccc2C)c(NC(=O)c2cc3cccc(F)c3s2)c1` [I-442] showed a pIC50 of 4.00 to 5.00.

The compound `CNC(=O)c1cnc(Nc2ccccc2C)c(NC(=O)c2cccnc2CS(C)(=O)=O)c1` [I-443] gave a pIC50 of 4.00 to 5.00.

For `CNC(=O)c1cnc(Nc2ccccc2C)c(NC(=O)c2ccnc3ccc(Br)cc23)c1` [I-444], the pIC50 is 4.00 to 5.00.

The compound `CNC(=O)c1cnc(Nc2ccccc2C)c(NC(=O)c2cccc(Cl)c2C)c1` [I-445] had a pIC50 of 4.00 to 5.00.

Compound `CC#CCC(C(=O)Nc1cc(C(=O)NC)cnc1Nc1ccccc1C)c1ccccc1` (centres unmarked) [I-446] showed a pIC50 of 4.00 to 5.00.

Compound `CNC(=O)c1cnc(Nc2ccccc2C)c(NC(=O)c2ccc3c(c2)COC3)c1` [I-447] had a pIC50 of 4.00 to 5.00.

`CNC(=O)c1cnc(Nc2ccccc2C)c(NC(=O)c2cc(=O)[nH]c3ccccc23)c1` [I-448] showed a pIC50 of 4.00 to 5.00.

As to `CNC(=O)c1cnc(Nc2ccccc2C)c(NC(=O)c2cc(Cl)n3ccccc23)c1` [I-449], the pIC50 is 6.30 to 7.00.

On to `CNC(=O)c1cnc(Nc2ccccc2C)c(NC(=O)c2cc(C)nn2C(F)F)c1` [I-450], for which the pIC50 is 4.00 to 5.00.

Turning to `CNC(=O)c1cnc(Nc2ccccc2C)c(NC(=O)c2cnc3cc(F)ccn23)c1` [I-451], the pIC50 was 4.00 to 5.00.

In turn, `CNC(=O)c1cnc(Nc2ccccc2C)c(NC(=O)c2cc3c(Cl)cncc3s2)c1` [I-452] showed a negative-log IC50 (pIC50) of 4.00 to 5.00.

`CNC(=O)c1cnc(Nc2ccccc2C)c(NC(=O)c2ccc3ccccc3c2Br)c1` [I-453] had a pIC50 of 4.00 to 5.00.

On to `CNC(=O)c1cnc(Nc2ccccc2C)c(NC(=O)c2cccc(OC)c2F)c1` [I-454], for which the pIC50 was 4.00 to 5.00.

`CNC(=O)c1cnc(Nc2ccccc2C)c(NC(=O)c2n[nH]c3ccc(C#N)cc23)c1` [I-455] gave a pIC50 of 4.00 to 5.00.

In the case of `CNC(=O)c1cnc(Nc2ccccc2C)c(NC(=O)c2cc3cccc(Cl)c3s2)c1` [I-456], the pIC50 was 5.00 to 6.00.

With `CNC(=O)c1cnc(Nc2ccccc2C)c(NC(=O)c2nn(C(C)C)c3ccccc23)c1` [I-457], the pIC50 was 4.00 to 5.00.

On to `CNC(=O)c1cnc(Nc2ccccc2C)c(NC(=O)CCc2c[nH]c3ccc(F)cc23)c1` [I-459], for which the pIC50 is 4.00 to 5.00.

With `CNC(=O)c1cnc(Nc2ccccc2C)c(NC(=O)c2cc(Br)cc3ccccc23)c1` [I-461], the pIC50 was 4.00 to 5.00.

`CNC(=O)c1cnc(Nc2ccccc2C)c(NC(=O)c2cc3c(Cl)cccn3c2)c1` [I-462]: the pIC50 is 4.00 to 5.00.

The compound `CNC(=O)c1cnc(Nc2ccccc2C)c(NC(=O)c2onc3c2CCCC3)c1` [I-463] gave a pIC50 of 4.00 to 5.00.

Compound `CNC(=O)c1cnc(Nc2ccccc2C)c(NC(=O)C2CCCC3CCCCC32)c1` (centres unmarked) [I-464] had a pIC50 of 4.00 to 5.00.

`CCc1c(Cl)c(C(=O)Nc2cc(C(=O)NC)cnc2Nc2ccccc2C)nn1C` [I-465] gave a negative-log IC50 (pIC50) of 4.00 to 5.00.

In turn, `CNC(=O)c1cnc(Nc2ccccc2C)c(NC(=O)c2cccc(C#N)c2Cl)c1` [I-466] showed a pIC50 of 4.00 to 5.00.

The compound `CNC(=O)c1cnc(Nc2ccccc2C)c(NC(=O)Cc2c[nH]c3cc(F)c(F)cc23)c1` [I-467] had a pIC50 of 4.00 to 5.00.

Turning to `CNC(=O)c1cnc(Nc2ccccc2C)c(NC(=O)c2cnc3ccc(F)cn23)c1` [I-469], the pIC50 was 4.00 to 5.00.

For the compound `CNC(=O)c1cnc(Nc2ccccc2C)c(NC(=O)c2cc(Cl)cc3cccnc23)c1` [I-470], the negative logarithm of the IC50 (pIC50) is 4.00 to 5.00.
